Source: patent US20260015350A1, “AZAQUINAZOLINE PAN-KRAS INHIBITORS” (Mirati Therapeutics, Inc., priority 2022, published 2026)

What was measured:
KRas^G12D = target: T1, KRas^G12D (Homo sapiens, UniProt P01116, G12D); assay: KRas binding assay (TR-FRET tracer displacement), KRas G12D
T1 construct: Biotinylated KRas (corresponding to amino acids 1-169, produced at Accelegan Inc.); biotin (biotinylated); purchased Accelegan Inc

KRas^G12R = target: T2, KRas^G12R (Homo sapiens, UniProt P01116, G12R); assay: KRas binding assay (TR-FRET tracer displacement), KRas G12R
T2 construct: Biotinylated KRas (corresponding to amino acids 1-169, produced at Accelegan Inc.); biotin (biotinylated); purchased Accelegan Inc

KRas^G12V = target: T3, KRas^G12V (Homo sapiens, UniProt P01116, G12V); assay: KRas binding assay (TR-FRET tracer displacement), KRas G12V
T3 construct: Biotinylated KRas (corresponding to amino acids 1-169, produced at Accelegan Inc.); biotin (biotinylated); purchased Accelegan Inc

[1] = tested on: KRas-mediated phosphorylation of ERK in AsPC-1 cells; assay: Inhibition of KRas-mediated phosphorylation of ERK (Cisbio HTRF pERK), AsPC-1 cells; assay type: cell-based; conditions: Homo sapiens, ASPC1, AsPC-1 cells; HTRF pERK
Method in brief: (§1)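 Cells were seeded at 6,000 per well and treated for 3 hrs with compound in a 10-dose, 3-fold series from 10 uM (0.8% final DMSO), with 0.2 uM Trametinib as Min control. Lysates made at 4° C over 40 mins were incubated 2 hrs at room temperature with d2- and Cryptate-labelled antibodies, then read by HTRF.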

[2] = tested on: KRas-mediated phosphorylation of ERK in H727 cells; assay: Inhibition of KRas-mediated phosphorylation of ERK (Cisbio HTRF pERK), H727 cells; assay type: cell-based; conditions: Homo sapiens, NCI-H727, H727 cells; HTRF pERK
Method in brief: as §1

T2 sequence (P01116 1-169 isoform P01116-2 G12R): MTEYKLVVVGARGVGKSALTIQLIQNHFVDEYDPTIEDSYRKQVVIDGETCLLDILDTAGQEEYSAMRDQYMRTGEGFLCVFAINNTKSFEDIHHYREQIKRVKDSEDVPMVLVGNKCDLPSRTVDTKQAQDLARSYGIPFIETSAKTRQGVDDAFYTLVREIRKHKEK
T3 sequence (P01116 1-169 isoform P01116-2 G12V): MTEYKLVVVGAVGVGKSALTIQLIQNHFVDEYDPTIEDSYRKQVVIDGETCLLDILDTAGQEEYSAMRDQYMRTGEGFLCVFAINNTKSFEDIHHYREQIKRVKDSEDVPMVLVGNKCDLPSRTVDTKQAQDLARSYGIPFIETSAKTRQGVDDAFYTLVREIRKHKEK
T1 sequence (P01116 1-169 isoform P01116-2 G12D): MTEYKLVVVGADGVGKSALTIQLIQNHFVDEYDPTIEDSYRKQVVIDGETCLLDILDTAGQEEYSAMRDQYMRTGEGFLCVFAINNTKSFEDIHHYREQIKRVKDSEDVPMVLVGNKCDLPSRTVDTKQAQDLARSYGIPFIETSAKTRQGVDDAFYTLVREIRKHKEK

| SMILES | IC50 (KRas^G12D) [nM] | IC50 (KRas^G12R) [nM] | IC50 (KRas^G12V) [nM] | IC50 [1] [nM] | IC50 [2] [nM] |
| --- | --- | --- | --- | --- | --- |
| CCc1c(F)ccc2cc(O)cc(-c3ncc4c(N5CC6C(=O)NC(=O)C6C5)nc(OC[C@]56CCCN5[C@H](COC(=O)N(C)C)CC6)nc4c3F)c12 (stereo partly drawn) [Example 708, ((3S,7aR)-7a-(((4-(4,6-dioxohexahydropyrrolo[3,4-c]pyrrol-2(1H)-yl)-7-(8-ethyl-7-fluoro-3-hydroxynaphthalen-1-yl)-8-fluoropyrido[4,3-d]pyrimidin-2-yl)oxy)methyl)hexahydro-1H-pyrrolizin-3-yl)methyl dimethylcarbamate] | 19900 | 39800 | 42900 | > 10000 | > 10000 |
| CN(C)C(=O)n1cc(CNc2nc(OC[C@@]34CCCN3C[C@H](F)C4)nc3c(F)c(-c4cc(O)cc5ccc(F)c(Cl)c45)ncc23)c(NC(=O)[C@H]2C[C@H](O)C2)n1 [Example 775, 4-(((7-(8-chloro-7-fluoro-3-hydroxynaphthalen-1-yl)-8-fluoro-2-(((2R,7aS)-2-fluorohexahydro-1H-pyrrolizin-7a-yl)methoxy)pyrido[4,3-d]pyrimidin-4-yl)amino)methyl)-3-((1r,3S)-3-hydroxycyclobutanecarboxamido)-N,N-dimethyl-1H-pyrazole-1-carboxamide] | 23 | 3 | 4 | > 10000 | > 10000 |
| CCc1c(F)ccc2cc(O)cc(-c3ncc4c(N5CCC[C@@](C)(O)C5)nc(OCC5(CN(C)C)CC5CO)nc4c3F)c12 (stereo partly drawn) [Example 813, (3R)-1-(2-((1-((dimethylamino)methyl)-2-(hydroxymethyl)cyclopropyl)methoxy)-7-(8-ethyl-7-fluoro-3-hydroxynaphthalen-1-yl)-8-fluoropyrido[4,3-d]pyrimidin-4-yl)-3-methylpiperidin-3-ol] | < 2 | 4 | < 2 | 1080 | 2550 |
| O=C1NS(=O)(=O)NC12CCCN(c1nc(OC[C@@]34CCCN3C[C@H](F)C4)nc3c(F)c(-c4cc(O)cc5ccc(F)c(Cl)c45)ncc13)C2 (stereo partly drawn) [Example 816, 7-(7-(8-chloro-7-fluoro-3-hydroxynaphthalen-1-yl)-8-fluoro-2-(((2R,7aS)-2-fluorotetrahydro-1H-pyrrolizin-7a(5H)-yl)methoxy)pyrido[4,3-d]pyrimidin-4-yl)-2-thia-1,3,7-triazaspiro[4.5]decan-4-one 2,2-dioxide] | 8 | 3 | 3 | > 10000 | > 10000 |
| CCc1c(F)ccc2cc(O)cc(-c3ncc4c(N5CCCCCC(P(C)(C)=O)C5)nc(OC[C@@]56CCCN5C[C@H](F)C6)nc4c3F)c12 (stereo partly drawn) [Example 864, (1-(7-(8-ethyl-7-fluoro-3-hydroxynaphthalen-1-yl)-8-fluoro-2-(((2R,7aS)-2-fluorotetrahydro-1H-pyrrolizin-7a(5H)-yl)methoxy)pyrido[4,3-d]pyrimidin-4-yl)azocan-3-yl)dimethylphosphine oxide] | 2130 | 1790 | 946 | > 10000 | > 10000 |
| CCc1c(F)ccc2cc(O)cc(-c3ncc4c(N5Cc6c(C(=O)N(C)C)nn(C)c6C5)nc(OC[C@@]56CCCN5C[C@H](F)C6)nc4c3F)c12 [Example 867, 5-(7-(8-ethyl-7-fluoro-3-hydroxynaphthalen-1-yl)-8-fluoro-2-(((2R,7aS)-2-fluorotetrahydro-1H-pyrrolizin-7a(5H)-yl)methoxy)pyrido[4,3-d]pyrimidin-4-yl)-N,N, 1-trimethyl-1,4,5,6-tetrahydropyrrolo[3,4-c]pyrazole-3-carboxamide] | 527 | 253 | 97 | > 10000 | 3410 |
| CCc1c(F)ccc2cc(O)cc(-c3ncc4c(N5CC6CCC(CCC(=O)NC)(C6)C5)nc(OC[C@@]56CCCN5C[C@H](F)C6)nc4c3F)c12 (stereo partly drawn) [Example 909, 3-(3-(7-(8-ethyl-7-fluoro-3-hydroxynaphthalen-1-yl)-8-fluoro-2-(((2R,7aS)-2-fluorotetrahydro-1H-pyrrolizin-7a(5H)-yl)methoxy)pyrido[4,3-d]pyrimidin-4-yl)-3-azabicyclo[3.2.1]octan-1-yl)-N-methylpropanamide] | 24 | 7 | 7 | 5160 | 1310 |

Now from value to compound:

| IC50 (KRas^G12D) [nM] | IC50 (KRas^G12R) [nM] | IC50 (KRas^G12V) [nM] | IC50 [1] [nM] | IC50 [2] [nM] | SMILES |
| --- | --- | --- | --- | --- | --- |
| 11400 | 21400 | 12700 | > 10000 | > 10000 | CCc1c(F)ccc2cc(O)cc(-c3ncc4c(N5CCC[C@@](C)(O)C5)nc(OCC56CC5CCCN(C)C6)nc4c3F)c12 (stereo partly drawn) [Example 828, (3R)-1-(7-(8-ethyl-7-fluoro-3-hydroxynaphthalen-1-yl)-8-fluoro-2-((3-methyl-3-azabicyclo[5.1.0]octan-1-yl)methoxy)pyrido[4,3-d]pyrimidin-4-yl)-3-methylpiperidin-3-ol] |
| 939 | 460 | 195 | > 10000 | > 10000 | CCc1c(F)ccc2cc(O)cc(-c3ncc4c(N5CCC(Cc6cncn6C)C5)nc(OC[C@@]56CCCN5C[C@H](F)C6)nc4c3F)c12 (stereo partly drawn) [Example 829, 5-ethyl-6-fluoro-4-(8-fluoro-2-(((2R,7aS)-2-fluorotetrahydro-1H-pyrrolizin-7a(5H)-yl)methoxy)-4-(3-((1-methyl-1H-imidazol-5-yl)methyl)pyrrolidin-1-yl)pyrido[4,3-d]pyrimidin-7-yl)naphthalen-2-ol] |
| 809 | 282 | 310 | 7700 | > 10000 | CCc1c(F)ccc2cc(O)cc(-c3ncc4c(N5CCn6ncc(C#N)c6C5)nc(OC[C@@]56CCCN5C[C@H](F)C6)nc4c3F)c12 [Example 865, 5-(7-(8-ethyl-7-fluoro-3-hydroxynaphthalen-1-yl)-8-fluoro-2-(((2R,7aS)-2-fluorotetrahydro-1H-pyrrolizin-7a(5H)-yl)methoxy)pyrido[4,3-d]pyrimidin-4-yl)-4,5,6,7-tetrahydropyrazolo[1,5-a]pyrazine-3-carbonitrile] |
| < 2 | < 2 | < 2 | 3180 | 2810 | CCc1c(F)ccc2cc3[nH]ncc3c(-c3ncc4c(N5CCC[C@]6(C5)NC(=O)NC6=O)nc(OCC56CCCN5CCC6)nc4c3F)c12 [Example 884, (5R)-7-(7-(5-ethyl-6-fluoro-1H-benzo[f]indazol-4-yl)-8-fluoro-2-((tetrahydro-1H-pyrrolizin-7a(5H)-yl)methoxy)pyrido[4,3-d]pyrimidin-4-yl)-1,3,7-triazaspiro[4.5]decane-2,4-dione] |
| 92 | 40 | 43 | 2100 | 3020 | CCc1c(F)ccc2cc(O)cc(-c3ncc4c(N5CC(C)(O)C6CC5C6)nc(OC[C@@]56CCCN5C[C@H](F)C6)nc4c3F)c12 (stereo partly drawn) [Example 893, 2-(7-(8-ethyl-7-fluoro-3-hydroxynaphthalen-1-yl)-8-fluoro-2-(((2R,7aS)-2-fluorotetrahydro-1H-pyrrolizin-7a(5H)-yl)methoxy)pyrido[4,3-d]pyrimidin-4-yl)-4-methyl-2-azabicyclo[3.1.1]heptan-4-ol] |
